Test results published in US11260101B2, “Repair peptide for use in promoting post-traumatic tissue repair and regeneration, and application thereof” (Jinan University, priority 2017, dated 2022).
Blank lines part the entries; values can stand above or below the substance they belong to. Positions of bridges follow the written chain, without caps; N, C: chain ends. No end group written: not given here.

Columns and labels:
[1] = tested on: human umbilical vein endothelial cells (HUVEC); assay: Proliferation-promoting effect on HUVEC, CCK-8 method; format: cell-based; conditions: 24 hours treatment
Description: 3. Detection of the Proliferation-Promoting Effects of Repair Peptides R1, R2, R3 and R4, and the bFGF Respectively on Human Umbilical Vein Endothelial Cells (HUVEC) by Using the CCK-8 Method
(§1) The HUVEC cells were plated in 96-well plates at 4000 cells per well. After the cells were adhered and then starved for 24 hours, the cells were treated for 24 hours with repair peptides R1, R2, R3 or R4, or the bFGF respectively at concentrations increased by 5 times. After that, the cells were treated with a CCK-8 reagent, and the OD value of each well was detected by an enzyme-labeled instrument.

[2] = tested on: mouse fibroblasts Balb/c 3T3; assay: Proliferation-promoting effect on fibroblasts Balb/c 3T3, CCK-8 method; format: cell-based; conditions: 24 hours treatment
Description: 2. Detection of the Proliferation-Promoting Effects of Repair Peptides R1, R2, R3 and R4, and the bFGF Respectively on Fibroblasts Balb/c 3T3 by Using the CCK-8 Method
as §1, with “The Ballb/c 3t3 cells were” for “The HUVEC cells were”, “hours with the repair peptides” for “hours with repair peptides”, “and the optical density (OD) value of” for “and the OD value of”

[3] = tested on: chick embryo chorioallantoic membrane; assay: Angiogenesis in chick embryo chorioallantoic membrane, R1-R4 at the same concentration; format: in vivo; conditions: 100 μL at 100 ng/mL, three days culture
Description: 5. Detection of the Angiogenesis in the Chick Embryo Chorioallantoic Membrane Promoted by Repair Peptides R1, R2, R3 and R4
A fertilized egg cultured for 5 days was placed with the bigger head of the egg up, then the eggshell was removed. 100 μL of repair peptides R1, R2, R3 and R4 at concentration of 100 ng/mL was respectively added drop-wise into the exposed chick embryo chorioallantoic membrane, and the opening was sealed with clean filter paper. A blank control group treated with PBS solution was set up. Further cultured for three days, then the chick embryo chorioallantoic membrane was peeled off, observed under a stereoscope and photographed, and the image was analyzed by using the software, ImageJ plus.

skin wound = assay: Skin wound healing after back incision; format: in vivo, Balb/c mice; conditions: 10 μL drop-wise into 1-cm sutured incisions once a day
Description: 6. Detection of the Wound Healing in […] Skin Promoted by Repair Peptides R1, R2, R3 and R4
Balb/c mice were anesthetized by intra-peritoneal injection with 1% pentobarbital sodium (100 mg/kg), and the back was depilated and disinfected using conventional sterilization methods with 1% iodophor and 75% alcohol. Both sides of the back were cut symmetrically leaving 1-cm incisions. The incisions were sutured with two needles in the sterilized surgery. Then 10 μL of repair peptides R1, R2, R3 and R4 are respectively added drop-wise into the wounds. The wounds were open with no cotton yarn covered. A blank control group treated with PBS solution was set up.

FGFR2 = FGFR2 (Homo sapiens, UniProt P21802); assay: Affinity to FGFR2 by isothermal titration calorimetry (ITC); format: binding; conditions: for Kd: read-out: dissociation constant Kd with FGFR2
Description: 1. Detection of the Affinity Between the Repair Peptide R1 and FGFR2 by Using the ITC Method
(The K denoted the affinity constant, and the Kd denoted the dissociation constant. The larger the K was and the smaller the Kd was, the stronger the affinity was).

[4] = tested on: chick embryo chorioallantoic membrane; assay: Angiogenesis in chick embryo chorioallantoic membrane, R1 at increasing concentrations; format: in vivo; conditions: 10 μL at concentrations increased by 25 times, three days culture
Description: 4. Angiogenesis in the Chick Embryo Chorioallantoic Membrane Promoted by the Repair Peptide R1
A fertilized egg cultured for 5 days was placed with the bigger head of the egg up. The eggshell was removed, and a silica gel ring was placed in the middle of the exposed chick embryo chorioallantoic membrane. 10 μL of the repair peptide R1 at concentrations increased by 25 times was respectively added drop-wise into the silica gel ring, and the opening was sealed with clean filter paper. A blank control group treated with PBS solution was set up. Further cultured for three days, then the chick embryo chorioallantoic membrane was peeled off, observed under a stereoscope and photographed, and the image was analyzed by using the software, ImageJ plus.

[5] = lower concentration groups (≤0.16 μM)

FGFR2, sequence (P21802 22-821, species assumed): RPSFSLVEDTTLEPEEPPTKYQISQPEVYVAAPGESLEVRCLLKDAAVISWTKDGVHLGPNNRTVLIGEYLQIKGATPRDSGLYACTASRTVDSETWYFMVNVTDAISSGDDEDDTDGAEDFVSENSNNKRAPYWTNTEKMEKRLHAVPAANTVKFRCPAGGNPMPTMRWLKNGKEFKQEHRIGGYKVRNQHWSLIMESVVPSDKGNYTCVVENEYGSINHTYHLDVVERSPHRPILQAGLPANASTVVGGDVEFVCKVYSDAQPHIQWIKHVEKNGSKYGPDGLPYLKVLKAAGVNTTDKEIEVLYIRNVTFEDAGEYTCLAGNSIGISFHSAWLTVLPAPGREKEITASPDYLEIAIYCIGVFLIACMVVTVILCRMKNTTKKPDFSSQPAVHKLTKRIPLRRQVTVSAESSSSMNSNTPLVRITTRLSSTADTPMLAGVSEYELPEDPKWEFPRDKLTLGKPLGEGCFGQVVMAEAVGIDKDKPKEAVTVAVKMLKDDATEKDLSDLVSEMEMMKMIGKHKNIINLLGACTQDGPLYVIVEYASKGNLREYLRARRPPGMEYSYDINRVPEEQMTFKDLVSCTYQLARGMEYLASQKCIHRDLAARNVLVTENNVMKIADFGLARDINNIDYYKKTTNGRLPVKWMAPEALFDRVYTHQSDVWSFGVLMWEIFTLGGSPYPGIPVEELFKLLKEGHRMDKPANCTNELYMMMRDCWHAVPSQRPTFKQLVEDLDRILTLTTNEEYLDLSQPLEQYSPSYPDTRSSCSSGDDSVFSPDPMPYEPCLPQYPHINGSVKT

Substance: CGPANVETC (disulfide 1-9 (inferred)) [R4]
- proliferation-promoting activity on HUVEC (OD, CCK-8) ([1]; higher concentration groups): still had a proliferation-promoting activity
- proliferation-promoting activity on HUVEC (OD, CCK-8) [1, 5]: comparable proliferation-promoting activity
- proliferation-promoting activity on Balb/c 3T3 (OD, CCK-8) ([2]; higher concentration groups): still had a proliferation-promoting activity
- proliferation-promoting activity on Balb/c 3T3 (OD, CCK-8) ([2]; lower concentration groups): comparable proliferation-promoting activity
- capillaries in the chick embryo chorioallantoic membrane [3]: significantly increased
- skin wound healing (skin wound): the healing was sped up

Substance: GPANVEKEKEK (R3)
- proliferation-promoting activity on HUVEC (OD, CCK-8) ([1]; higher concentration groups): still had a proliferation-promoting activity
- proliferation-promoting activity on HUVEC (OD, CCK-8) [1, 5]: comparable proliferation-promoting activity
- proliferation-promoting activity on Balb/c 3T3 (OD, CCK-8) ([2]; higher concentration groups): still had a proliferation-promoting activity
- proliferation-promoting activity on Balb/c 3T3 (OD, CCK-8) ([2]; lower concentration groups): comparable proliferation-promoting activity
- capillaries in the chick embryo chorioallantoic membrane [3]: significantly increased
- skin wound healing (skin wound): the healing was sped up

- affinity constant K with FGFR2 (FGFR2): 7.35e+08 ± 2.1e+08 M⁻¹
- affinity to FGFR2 relative to that of bFGF (FGFR2; R1-FGFR2 versus bFGF-FGFR2): about 4,500 times
- Kd (FGFR2): ~0.00137 µM
Substance: GPANVET [R1, GPANVET]
- proliferation-promoting activity on HUVEC (OD, CCK-8) ([1]; higher concentration groups): still had a proliferation-promoting activity
- proliferation-promoting activity on HUVEC (OD, CCK-8) [1, 5]: comparable proliferation-promoting activity
- proliferation-promoting activity on Balb/c 3T3 (OD, CCK-8) ([2]; higher concentration groups): still had a proliferation-promoting activity
- proliferation-promoting activity on Balb/c 3T3 (OD, CCK-8) ([2]; lower concentration groups): comparable proliferation-promoting activity
- capillaries in the chick embryo chorioallantoic membrane [3]: significantly increased
- skin wound healing (skin wound): the healing was sped up
- capillaries in the chick embryo chorioallantoic membrane [4]: significantly increased with the increasing dose

Substance: KVKVGPANVKVKV (R2)
- proliferation-promoting activity on HUVEC (OD, CCK-8) ([1]; higher concentration groups): still had a proliferation-promoting activity
- proliferation-promoting activity on HUVEC (OD, CCK-8) [1, 5]: comparable proliferation-promoting activity
- proliferation-promoting activity on Balb/c 3T3 (OD, CCK-8) ([2]; higher concentration groups): still had a proliferation-promoting activity
- proliferation-promoting activity on Balb/c 3T3 (OD, CCK-8) ([2]; lower concentration groups): comparable proliferation-promoting activity
- capillaries in the chick embryo chorioallantoic membrane [3]: significantly increased
- skin wound healing (skin wound): the healing was sped up

- affinity constant K with FGFR2 (FGFR2): 162000 ± 25000 M⁻¹
- Kd (FGFR2): ~6.17 µM
Substance: bFGF: recombinant basic Fibroblast Growth Factor (155 amino acids), clinically applied to wounds and burns
- proliferation-promoting activity on HUVEC (OD, CCK-8) ([1]; higher concentration groups): cell proliferation was inhibited
- proliferation-promoting activity on HUVEC (OD, CCK-8) [1, 5]: comparable proliferation-promoting activity
- proliferation-promoting activity on Balb/c 3T3 (OD, CCK-8) ([2]; higher concentration groups): cell proliferation was inhibited
- proliferation-promoting activity on Balb/c 3T3 (OD, CCK-8) ([2]; lower concentration groups): comparable proliferation-promoting activity
